Twelve molecules from ChEMBL document CHEMBL1140787, “Discovery of beta-benzamido hydroxamic acids as potent, selective, and orally bioavailable TACE inhibitors” (Bioorg Med Chem Lett, 2008) can be followed below.

One series concerns Blood. Kind of series: Inhibition of LPS-stimulated TNFalpha release in human whole blood. The series is classed as functional, tissue-based.
Series [1] concerns the target Disintegrin and metalloproteinase domain-containing protein 17 (Sus scrofa, UniProt O77636). Kind of series: Inhibition of pig TACE.
A short description of series [2]: Permeability across human Caco-2 cell membrane. The class given is ADME, cell-based. In general terms: Caco-2 cells form a polarised layer with tight junctions and transporters.
The nature of series [3]: AUC in Beagle dog at 2 mg/kg, iv. More on the design: dose 2 mg/kg, route intravenous. The class given is ADME, organism-based, Canis lupus familiaris. The following applies: plasma.
The nature of series [4]: AUC in Beagle dog at 8 mg/kg, po. The series is classed as ADME, organism-based, Canis lupus familiaris. On the set-up: dose 8 mg/kg, route oral. The following applies: plasma.
Series [5] deals with Macrophage metalloelastase (Homo sapiens, UniProt P39900). Description: Inhibition of MMP12.
A short description of series [6]: Fraction unbound in rat serum. The class given is ADME, cell-free.
A further series concerns Rattus norvegicus. Description: Inhibition of LPS-induced TNFalpha production in po dosed rat endotoxemia model. The class given is functional.
Series [7] in a line: Oral bioavailability in Sprague-Dawley rat at 40 mg/kg. The series is classed as ADME, organism-based. As to conditions: in vivo.
The next series addresses Cytochrome P450 3A4 (Homo sapiens, UniProt P08684). Kind of series: Inhibition of CYP3A4 at 20 uM. The series is classed as ADME.
Another series deals with Stromelysin-1 (Homo sapiens, UniProt P08254). Description: Inhibition of MMP3.
A short description of series [8]: Tmax in Beagle dog at 8 mg/kg, po. The series is classed as ADME, organism-based, Canis lupus familiaris. On the set-up: dose 8 mg/kg, route oral. The following applies: in vivo.
The nature of series [9]: AUC in Sprague-Dawley rat at 2 mg/kg, iv. More on the design: dose 2 mg/kg, route intravenous. As to conditions: plasma. The series is classed as ADME, organism-based.
A short description of series [10]: Fraction unbound in human serum. The class given is ADME, cell-free.
Series [11] is described as follows: AUC in Sprague-Dawley rat at 40 mg/kg, po. As to conditions: plasma. On the set-up: dose 40 mg/kg, route oral. The series is classed as ADME, organism-based.
The nature of series [12]: Fraction unbound in dog serum. The series is classed as ADME, cell-free, Canis lupus familiaris.
A further series addresses T1, Matrilysin (Homo sapiens, UniProt P09237).
T1 sequence (P09237 whole entry): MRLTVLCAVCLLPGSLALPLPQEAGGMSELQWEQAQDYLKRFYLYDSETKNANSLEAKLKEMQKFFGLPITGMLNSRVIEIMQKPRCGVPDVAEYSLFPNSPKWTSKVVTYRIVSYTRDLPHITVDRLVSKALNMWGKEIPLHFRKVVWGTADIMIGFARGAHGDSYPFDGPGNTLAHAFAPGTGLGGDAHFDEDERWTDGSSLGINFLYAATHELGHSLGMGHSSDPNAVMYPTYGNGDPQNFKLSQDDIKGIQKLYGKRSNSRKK
Description: Inhibition of MMP7.

The next series concerns the target Stromelysin-2 (Homo sapiens, UniProt P09238). Kind of series: Inhibition of MMP10.
Series [13] is described as follows: Volume of distribution at steady state in Beagle dog at 2 mg/kg, iv. On the set-up: dose 2 mg/kg, route intravenous. The following applies: in vivo, read-out: Vdss. The class given is ADME, organism-based, Canis lupus familiaris.
Series [14] in a line: Half life in Beagle dog at 2 mg/kg, iv. More on the design: dose 2 mg/kg, route intravenous. The following applies: in vivo. The series is classed as ADME, organism-based, Canis lupus familiaris.
Another series relates to Mus musculus. Description: Inhibition of LPS-induced TNFalpha production in po dosed mouse endotoxemia model. The class given is functional.
Series [15] in a line: Oral bioavailability in Beagle dog at 8 mg/kg. The following applies: in vivo. The class given is ADME, organism-based, Canis lupus familiaris.
A short description of series [16]: Clearance in Beagle dog at 2 mg/kg, iv. The class given is ADME, organism-based, Canis lupus familiaris. On the set-up: dose 2 mg/kg, route intravenous. As to conditions: in vivo.
Series [17] is described as follows: Volume of distribution at steady state in Sprague-Dawley rat at 2 mg/kg, iv. The series is classed as ADME, organism-based. On the set-up: dose 2 mg/kg, route intravenous. The following applies: in vivo, read-out: Vdss.
The nature of series [18]: Clearance in Sprague-Dawley rat at 2 mg/kg, iv. The following applies: in vivo. The class given is ADME, organism-based. More on the design: dose 2 mg/kg, route intravenous.
The nature of series [19]: Tmax in Sprague-Dawley rat at 40 mg/kg, po. The class given is ADME, organism-based. More on the design: dose 40 mg/kg, route oral. As to conditions: in vivo.
The nature of series [20]: Half life in Sprague-Dawley rat at 2 mg/kg, iv. The class given is ADME, organism-based. On the set-up: dose 2 mg/kg, route intravenous. The following applies: in vivo.

Sequence of Disintegrin and metalloproteinase domain-containing protein 17 (O77636 whole entry, the tested form may be a part): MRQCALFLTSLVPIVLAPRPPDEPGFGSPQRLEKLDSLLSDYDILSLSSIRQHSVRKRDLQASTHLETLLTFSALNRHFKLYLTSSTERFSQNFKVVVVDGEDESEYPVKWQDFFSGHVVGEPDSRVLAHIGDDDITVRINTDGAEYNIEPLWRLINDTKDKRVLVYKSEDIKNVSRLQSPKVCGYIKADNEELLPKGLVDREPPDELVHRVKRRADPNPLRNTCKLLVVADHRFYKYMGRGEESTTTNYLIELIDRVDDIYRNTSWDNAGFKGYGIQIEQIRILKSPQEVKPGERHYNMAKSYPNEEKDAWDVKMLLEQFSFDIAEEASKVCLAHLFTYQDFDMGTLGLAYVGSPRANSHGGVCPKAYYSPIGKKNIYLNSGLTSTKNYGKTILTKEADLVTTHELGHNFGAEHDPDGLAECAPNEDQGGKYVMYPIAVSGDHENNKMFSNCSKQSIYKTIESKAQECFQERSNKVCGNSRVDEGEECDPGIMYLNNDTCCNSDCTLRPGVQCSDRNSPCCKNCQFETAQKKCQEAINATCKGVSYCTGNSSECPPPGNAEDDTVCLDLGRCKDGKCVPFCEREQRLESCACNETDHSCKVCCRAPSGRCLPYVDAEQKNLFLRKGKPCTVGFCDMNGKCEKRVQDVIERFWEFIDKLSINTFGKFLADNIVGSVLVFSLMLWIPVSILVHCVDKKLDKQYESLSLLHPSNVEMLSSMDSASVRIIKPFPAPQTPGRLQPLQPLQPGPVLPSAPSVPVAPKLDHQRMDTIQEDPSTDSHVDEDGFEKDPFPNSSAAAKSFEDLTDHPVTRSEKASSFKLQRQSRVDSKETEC
Sequence of Stromelysin-2 (P09238 whole entry): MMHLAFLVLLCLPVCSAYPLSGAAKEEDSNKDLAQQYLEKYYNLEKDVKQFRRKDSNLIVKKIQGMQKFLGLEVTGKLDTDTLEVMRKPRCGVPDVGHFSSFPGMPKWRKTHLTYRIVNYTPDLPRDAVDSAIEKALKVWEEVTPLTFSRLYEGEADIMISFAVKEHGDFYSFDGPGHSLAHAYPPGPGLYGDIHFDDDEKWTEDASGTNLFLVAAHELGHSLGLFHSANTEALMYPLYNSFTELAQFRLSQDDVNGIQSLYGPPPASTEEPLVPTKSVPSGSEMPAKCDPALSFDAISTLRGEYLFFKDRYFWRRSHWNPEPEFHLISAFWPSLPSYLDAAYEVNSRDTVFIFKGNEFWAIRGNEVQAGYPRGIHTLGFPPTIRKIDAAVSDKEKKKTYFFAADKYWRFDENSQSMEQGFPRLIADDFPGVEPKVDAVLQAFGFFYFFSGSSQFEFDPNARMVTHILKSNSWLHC
Sequence of Macrophage metalloelastase (P39900 whole entry): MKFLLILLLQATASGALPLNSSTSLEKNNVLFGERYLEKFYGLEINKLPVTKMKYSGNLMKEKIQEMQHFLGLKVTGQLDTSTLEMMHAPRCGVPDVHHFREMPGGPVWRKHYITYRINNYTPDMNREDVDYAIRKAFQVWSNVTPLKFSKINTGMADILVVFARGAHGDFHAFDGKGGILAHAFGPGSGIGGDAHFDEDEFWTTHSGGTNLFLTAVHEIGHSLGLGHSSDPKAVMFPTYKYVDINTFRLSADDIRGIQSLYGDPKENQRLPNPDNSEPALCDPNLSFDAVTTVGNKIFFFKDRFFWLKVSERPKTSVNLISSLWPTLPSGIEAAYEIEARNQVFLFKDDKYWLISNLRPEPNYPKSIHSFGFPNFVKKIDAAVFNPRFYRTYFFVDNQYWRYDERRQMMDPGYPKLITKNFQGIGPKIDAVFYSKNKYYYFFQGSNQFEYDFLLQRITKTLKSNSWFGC
Sequence of Stromelysin-1 (P08254 whole entry): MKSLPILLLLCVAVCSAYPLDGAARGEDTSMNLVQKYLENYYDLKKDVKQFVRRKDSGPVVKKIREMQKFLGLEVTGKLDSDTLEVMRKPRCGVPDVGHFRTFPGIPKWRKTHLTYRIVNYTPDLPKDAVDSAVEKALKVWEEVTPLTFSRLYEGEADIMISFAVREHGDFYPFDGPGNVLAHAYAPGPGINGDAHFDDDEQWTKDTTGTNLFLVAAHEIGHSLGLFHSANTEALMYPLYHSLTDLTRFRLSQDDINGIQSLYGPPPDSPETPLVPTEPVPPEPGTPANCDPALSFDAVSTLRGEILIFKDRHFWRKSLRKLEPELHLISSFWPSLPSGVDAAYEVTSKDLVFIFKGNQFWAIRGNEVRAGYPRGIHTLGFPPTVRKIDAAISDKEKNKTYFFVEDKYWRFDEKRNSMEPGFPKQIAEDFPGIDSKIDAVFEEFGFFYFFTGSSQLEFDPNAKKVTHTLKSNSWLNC
Sequence of Cytochrome P450 3A4 (P08684 whole entry): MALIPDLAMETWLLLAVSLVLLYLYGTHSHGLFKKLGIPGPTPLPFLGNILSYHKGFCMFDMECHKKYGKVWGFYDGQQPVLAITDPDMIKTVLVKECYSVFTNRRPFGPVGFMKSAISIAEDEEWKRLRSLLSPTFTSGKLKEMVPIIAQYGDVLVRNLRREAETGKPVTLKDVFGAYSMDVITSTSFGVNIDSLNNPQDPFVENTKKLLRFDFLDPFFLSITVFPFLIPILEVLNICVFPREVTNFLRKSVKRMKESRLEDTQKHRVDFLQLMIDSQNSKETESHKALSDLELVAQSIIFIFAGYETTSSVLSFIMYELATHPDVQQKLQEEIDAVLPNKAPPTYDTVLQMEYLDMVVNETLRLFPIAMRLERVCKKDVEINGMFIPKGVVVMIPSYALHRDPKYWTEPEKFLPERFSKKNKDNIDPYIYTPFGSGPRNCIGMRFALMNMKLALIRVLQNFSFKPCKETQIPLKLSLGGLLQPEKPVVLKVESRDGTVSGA

As usually defined, the IC50 is the concentration that gives 50% inhibition. Read a low IC50 as higher potency. As a reminder, the Papp is the rate of passage across a membrane or cell layer, normalised by area and donor concentration. With `Cc1cc(COc2ccc(C(=O)N[C@@H]3CCCC[C@@H]3C(=O)NO)cc2)c2ccccc2n1`, the IC50 with Blood was 890 nM; in series [1] it was 2 nM. In series [2], the Papp was determined as 3.4 ×10⁻⁶ cm/s.

As to `Cc1cc(COc2ccc(C(=O)N[C@@H]3CN(C(C)(C)C)CC[C@@H]3C(=O)NO)cc2)c2ccccc2n1`, the figures for the IC50 (in the series on Blood; in series [1]) were 44 nM and 2 nM, respectively. In series [2], this molecule had a Papp of 0.6 ×10⁻⁶ cm/s.

Usually AUC stands for concentration integrated over time. Low values mean low exposure, high ones high exposure. The term Ki denotes a measure of affinity in units of concentration, obtained from inhibition or displacement. Low values mean tighter binding, high ones weaker binding. The fraction unbound is the share of the substance not bound to proteins or other matrix. A high value points to much free substance. In general, ED50 refers to the dose at which the effect has come halfway, by size or by number of responders. A higher ED50 goes with a need for a large dose. A word on the bioavailability: it is the share of a dose that reaches the circulation, judged against a reference dose that is usually intravenous. High values mean much systemic uptake, low ones little systemic uptake. One may read the Tmax as the time from dosing to the highest level. Broadly, the half-life is the time needed for the level to fall by half in the phase considered. What is called clearance is the volume of plasma or blood freed of the substance per unit of time. The low end stands for inefficient removal, the high end for efficient removal. For the molecule `Cc1cc(COc2ccc(C(=O)N[C@@H]3CCOC[C@@H]3C(=O)NO)cc2)c2ccccc2n1`, the AUC was 2.7 µM·h in series [3], 11 µM·h in series [4], 5.7 µM·h in [9] and 65 µM·h in series [11]. The results for the IC50 (in the series on Blood; in series [1]) were 130 nM and < 1 nM, respectively. Also, the Ki in [5] is < 100 nM; in series [1], 0.15 nM; on Stromelysin-1 it was < 100 nM; on Matrilysin, < 100 nM; on Stromelysin-2 it was < 100 nM. The fraction unbound was found to be 0.038 in series [6], 0.075 in [10] and 0.17 in series [12]. Besides, the ED50 in the series on Rattus norvegicus was determined as 3 mg/kg; with Mus musculus, 2.2 mg/kg. Moreover, the bioavailability was found to be 58% in series [7] and 96% in series [15]. Besides, the Activity entry on Cytochrome P450 3A4 is recorded as “Not Active”. Besides, the Tmax in series [8] turned out to be 12 min; in series [19], 24 min. This molecule came in with a Papp in series [2] of 2.3 ×10⁻⁶ cm/s. The Vd in [13] came to 1.6 L/kg; in [17], 0.4 L/kg. The half-life was 96 min in [14] and 84 min in series [20]. In addition, the clearance is 28.3 mL/min/kg in [16] and 11.7 mL/min/kg in series [18].

Take `Cc1cc(COc2ccc(C(=O)N[C@H]3CNCC[C@@H]3C(=O)NO)cc2)c2ccccc2n1`: the IC50 was 393 nM with Blood and < 1 nM in series [1].

For `Cc1cc(COc2ccc(C(=O)N[C@@H]3CNCC[C@@H]3C(=O)NO)cc2)c2ccccc2n1`, the IC50 worked out at 187 nM in the series with Blood and 1 nM in [1]. Besides, in series [2], the Papp worked out at 0.2 ×10⁻⁶ cm/s.

As to `Cc1cc(COc2ccc(C(=O)N[C@@H]3CCCC[C@H]3C(=O)NO)cc2)c2ccccc2n1`, the figures for the IC50 (in the series with Blood; in series [1]) were > 3000 nM and 2 nM, respectively.

For the molecule `Cc1cc(COc2ccc(C(=O)N[C@@H]3CN(CCN(C)C)CC[C@@H]3C(=O)NO)cc2)c2ccccc2n1`, the IC50 amounted to 55 nM with Blood and 2 nM in series [1]. Moreover, the Papp in [2] was determined as 0.1 ×10⁻⁶ cm/s.

As for `Cc1cc(COc2ccc(C(=O)N[C@@H]3COCC[C@@H]3C(=O)NO)cc2)c2ccccc2n1`, the IC50 with Blood is 290 nM; in series [1], < 1 nM. In series [2], this molecule showed a Papp of 0.4 ×10⁻⁶ cm/s.

For `Cc1cc(COc2ccc(C(=O)NC3CCC3C(=O)NO)cc2)c2ccccc2n1` (configuration not stated), the IC50 is 2860 nM with Blood and 1 nM in series [1]. Also, the Papp in series [2] was 0.4 ×10⁻⁶ cm/s.

For `Cc1cc(COc2ccc(C(=O)N[C@@H]3CCNC[C@@H]3C(=O)NO)cc2)c2ccccc2n1`, the half-inhibitory concentration (IC50) in the series with Blood is 620 nM; in series [1], 24 nM. Further, the Papp in series [2] stood at 0.2 ×10⁻⁶ cm/s.

On to `Cc1cc(COc2ccc(C(=O)N[C@@H]3CCCO[C@@H]3C(=O)NO)cc2)c2ccccc2n1`, for which the IC50 with Blood came to 4110 nM; in [1], 3 nM. Besides, the Papp in series [2] is 0.06 ×10⁻⁶ cm/s.

`Cc1cc(COc2ccc(NC(=O)[C@@H]3[C@@H](C(=O)NO)CCCN3C)cc2)c2ccccc2n1` came in with an IC50 in the series on Blood of 20 nM.
